Reference: PMC11099041, “Tissue distribution and retention drives efficacy of rapidly clearing VHL-based PROTACs” (Communications Medicine, 2024)
“And” between values parts separate entries of the source, which are not always exact repeats. Equal entries are not always repeated.

Key:
[1] = rat, in vivo
Excerpt: Male Sprague Dawley rats, intact or bile-cannulated, were from Envigo RMS, Inc. The animals were acclimated to study conditions for five days prior to dose administration. During acclimation, animals were individually housed in suspended, stainless steel, wire-mesh cages. During the test period, animals were placed in Nalgene cages designed for the collection of urine, feces, and bile. Certified Rodent Diet #2016C or 2016CM (Envigo RMS, Inc.) were provided ad libitum. Water was provided fresh daily. Environmental controls for the animal room were set to maintain a temperature of 20-26 °C, a relative humidity of 50 ± 20%, and a 12-hour light/12-hour dark cycle. […] Three BDC rats were used for collection of bile, urine, and feces, five intact rats for collection of plasma, blood, urine, feces, and tissues, and eight intact rats for collection of blood and carcasses for QWBA. […] The vehicle for the IV dose was 20% 2-hydroxypropyl-β-cyclodextrin (HP-β-CD) in 50 mM sodium acetate buffer, pH 4.0. […] The supernatant was removed, and the formulation appeared to be a very slight yellow solution. Stability was checked by HPLC analysis of pre- and post-dose aliquots. Animals were not fasted. The actual amount administered was determined by weighing the dose syringe before and after dose administration. The IV dose of 4 mg/kg was administered via a tail vein. For QWBA rats, one animal/time point was prepared for QWBA at approximately 0.25, 1, 4, 8, 24, 48, 168, and 336 hours. […] Blood was maintained on wet ice until being aliquoted for radioanalysis and centrifuged to obtain plasma. […] Each carcass was drained, blotted dry, placed into an appropriately labeled bag, and placed on dry ice or stored at ~-70 °C for at least 2 hours. The frozen carcasses were embedded in chilled carboxymethylcellulose and frozen into blocks. Embedded carcasses were stored at ~-20 °C in preparation for autoradiographic analysis. The samples were stored at -70 °C before analysis. […] Prior to section collection, standards fortified with ^14C radioactivity were placed into the frozen block containing the carcass and were used for monitoring the uniformity of section thickness. Appropriate sections were collected on adhesive tape at 40 μm thickness, in a Leica CM 3600 cryomicrotome in accordance with Covance standard operating procedures. Sections were collected at five levels of interest in the sagittal plane. All major tissues, organs, and biological fluids were represented. Collected sections were dried at ~-20 °C. A section set from each animal was prepared by mounting a representative section from each level of interest. Mounted sections were tightly wrapped with Mylar film and exposed on phosphor-imaging screens along with fortified blood standards for subsequent calibration of the image analysis software. Screens were exposed for 4 days. Exposed screens were scanned using a Typhoon scanner. The autoradiographic standard image data were sampled using InterFocus Imaging Ltd. MCIDTM Analysis software to create a calibrated standard curve. Specified tissues, organs, and fluids were analyzed. […] Tissue concentration data are presented in tabular format. Autoradiographs were annotated. The mean time concentration profile was generated for each group, and an overall AUC was then calculated with these sparse samples of rats and mice. […]

[2] = Metabolite profiling in rat bile, urine and feces (radio-HPLC, LC-HRMS); assay type: in vivo; details: in vivo, iv, 4 mg/kg
Protocol: Tissue homogenate samples at 24 hours were extracted as plasma samples. […] The pooled urine samples containing 10% MeOH were analyzed by liquid chromatography-high resolution mass spectrometry (LC-HRMS).
The pooled bile sample containing 10% MeOH was analyzed by LC-HRMS.
Feces samples obtained from BDC and intact rats were pooled separately across time intervals for each animal (5% w/v) and further pooled across animals for each group to generate a 0–68 hour pooled sample. Approximately 1–2 g of each pooled feces sample was extracted as the same protocol used for plasma samples. […] The reconstituted samples were analyzed by LC-HRMS.
The reconstituted samples were analyzed by LC-HRMS, with eluent fractions collected at 10-second intervals into 96-well plates containing solid scintillant. Radioactivity in each well was determined using TopCount analysis, and radiochemical profiles were generated based on radioactivity counts. Structural elucidation was performed based on mass spectral interpretation to identify metabolites.
For metabolite profiling and identification, LC-MS analysis used a Shimadzu/Nexera LC-30 AD liquid chromatographic system and a ThermoFisher Scientific Q Exactive with a positive/negative heated electrospray interface. The column was a Waters XSelect HSS T3 4.6 mm × 250 mm, 3.5 µm and maintained at 40 °C. The mobile phases were (A) 20 mM ammonium acetate in water and (B) acetonitrile. […] The flow was 1 mL/min and split 20% to mass analysis and 80% collected for radioactivity counting. Mass spectrometry data was acquired with full scans at a resolution of 70,000 for a m/z range of 300 to 1500, and MS/MS scans were acquired at a resolution of 17,500. The mass spectrometer was operated with a normalized collision energy of 30 (ESI+), S-Lens RF level of 60, source voltage of +3.5 kV, Capillary temperature of 320 °C, and Probe heater temperature of 300 °C.

[3] = test system: HCC2302 xenograft; assay: Mouse efficacy study, tumor volume; assay type: in vivo
Protocol: Female C.B-17 SCID (Inbred) mice that weighed 16–20 g were inoculated with 10 million HCC2302 lung adenocarcinoma cells (suspended in a mixture of Hank’s Balanced Salt Solution containing Matrigel at a 1:1 ratio) in the right flank subcutaneously. Tumors were monitored until they reached a mean tumor volume of 110–167 mm^3. The mean tumor volume across all three groups was 141 ± 16.64 mm^3 (mean ± SD) at the initiation of dosing (Study WF-31, n = 10). […] Tumor volumes were measured in two dimensions (length and width) using Ultra Cal-IV calipers. The tumor volume was calculated with the following formula: Tumor size (mm^3) = (longer measurement × shorter measurement^2)/2. Animal body weights were measured using an Adventura scale. Percent weight change was calculated using the following formula: Group percent weight change = (new weight − initial weight)/ initial weight) × 100%.
In a separate study, tumors were monitored until they reached a mean tumor volume of 121–159 mm^3. The mean tumor volume across all three groups was 138 ± 10.26 mm^3 (mean ± SD) at the initiation of dosing (Study WF-34, n = 10).

[4] = Bioavailability after PO administration (peer review reply); assay type: in vivo; details: authors' reply in peer review file

SMILES	Half-life (t1/2) in tissues [1]	Radioactivity t1/2, brain cerebellum [1]	Radioactivity t1/2, small intestine [1]	Cmax, adrenal glands ([1]; iv, 4 mg/kg)	Cmax, kidneys ([1]; iv, 4 mg/kg)	Cmax, liver ([1]; iv, 4 mg/kg)	Cmax, lungs ([1]; iv, 4 mg/kg)	Cmax, pancreas ([1]; iv, 4 mg/kg)	Cmax, salivary glands ([1]; iv, 4 mg/kg)	Cmax, spleen ([1]; iv, 4 mg/kg)	Cmax, thyroid gland ([1]; iv, 4 mg/kg)	t½ ([1]; iv, 4 mg/kg)	%Rad in bile [2]	%rad in feces [2]	%rad in urine [2]	Tumor growth inhibition ([3]; HCC2302 xenograft, weekly doses of 20 or 40 mg/kg)	Tumor volume (mean) ([3]; WF-31, 40 mg/kg IV QW, day 0, 3, 7, 10, 13, 14, 21)	Bioavailability after PO administration [4]
Cc1ncsc1-c1ccc(C(C)NC(=O)C2CC(O)CN2C(=O)C(c2cc(N3CCC(CN4CCC(OC5CC(Oc6cc(N7C8CCC7CN(c7cc(-[14c]9[14cH][14cH][14cH][14cH][14c]9O)nnc7N)C8)ccn6)C5)CC4)CC3)no2)C(C)C)cc1 (stereo not drawn) [14C-A947]	87 to 100 h	11 h	167 h	17 µg/g	22 µg/g	32 µg/g	12 µg/g	9 µg/g	12 µg/g	21 µg/g	18 µg/g	111 h	23.11%	18.95%	20.6%	–	–	–
Cc1ncsc1-c1ccc(C(C)NC(=O)C2CC(O)CN2C(=O)C(c2cc(N3CCC(CN4CCC(OC5CC(Oc6cc(N7C8CCC7CN(c7cc(-c9ccccc9O)nnc7N)C8)ccn6)C5)CC4)CC3)no2)C(C)C)cc1 (stereo not drawn) [A947]	–	–	–	–	–	–	–	–	–	–	–	–	–	–	–	dose-dependent tumor growth inhibition	202.88 mm^3 and 192.71 mm^3 and 203.88 mm^3 and 210.27 mm^3 and 204.46 mm^3 and 141.86 mm^3 and 179.41 mm^3	did not find bioavailability
